Values after ≈ are worked out from the molar mass of the structure shown. Bridge positions count the residues as written; N and C are the ends. Peptide text beside a SMILES is read from it.
What was measured:
[1] = system: Human immunodeficiency virus 1; experiment: Antiviral activity against HIV-1 NL4-3 infected in human PM1/CCR5 cells after 7 days by WST-8 assay; type: functional, organism-based; conditions: Human immunodeficiency virus 1, NL4-3, PM1/CCR5, 168 h
[2] = system: Bacillus subtilis; experiment: Antibacterial activity against Bacillus subtilis after 24 hrs; type: functional
[3] = system: Micrococcus luteus; experiment: Antibacterial activity against Micrococcus luteus after 24 hrs; type: functional
[4] = system: Escherichia coli; experiment: Antibacterial activity against Escherichia coli after 24 hrs; type: functional
[5] = system: Staphylococcus aureus; experiment: Antibacterial activity against Staphylococcus aureus after 24 hrs; type: functional
[6] = system: Pseudomonas aeruginosa; experiment: Antibacterial activity against Pseudomonas aeruginosa after 24 hrs; type: functional

Compound | IC50 [1] [µM] | MIC [2] [µg/mL] | MIC [3] [µg/mL] | MIC [4] [µg/mL] | MIC [5] [µg/mL] | MIC [6] [µg/mL]
CC(C)C[C@@H]1NC(=O)[C@@H]2CSSC[C@@H]3NC(=O)CNC(=O)[C@H](C)NC(=O)[C@H](Cc4ccccc4)NC(=O)[C@H](CC(=O)N2)NC(=O)[C@H](C(C)C)NC(=O)[C@H](CSSC[C@@H](C(=O)N[C@@H](Cc2ccccc2)C(=O)N[C@@H](Cc2c[nH]c4ccccc24)C(=O)O)NC(=O)[C@H](C(C)C)NC(=O)[C@H](C(C)C)NC(=O)[C@H](C)NC(=O)[C@H](Cc2ccc(O)cc2)NC(=O)CNC3=O)NC(=O)[C@H](CO)NC(=O)CNC(=O)[C@H](C(C)C)NC(=O)CNC1=O (CLGVGSCVDFAGCGYAVVCFW-OH; disulfide 1-13, 7-19; lactam N-9) | 7.2 | > 32 | 8 (≈ 3.75 µM) | > 32 | > 32 | > 32
CN(C)[C@@H]1C(O)=C(C(N)=O)C(=O)[C@@]2(O)C(O)=C3C(=O)c4c(O)cccc4[C@@](C)(O)[C@H]3C[C@@H]12 [TETRACYCLINE] | – | 1 (≈ 2.25 µM) | 0.25 (≈ 0.563 µM) | 2 (≈ 4.5 µM) | 0.125 (≈ 0.281 µM) | 4 (≈ 9 µM)
